# From patent publication US8658129B2, “Agents and methods for the imaging of myelin basic protein” (General Electric Company, priority 2009, dated 2014)
# How the values were obtained:
# [1] = Dynamic light scattering measurement of aqueous solubility; assay type: physicochemical; details: 25° C., angle of 173°, in nm (unit assumed)
# Experimental: Dynamic light scattering spectroscopy was used to measure aqueous solubility. Measurements were collected on a Malvern HPPS500 spectrometer (Malvern Instruments Inc., Southborough, Mass.). Samples were measured in a low volume disposable cuvette at 25° C., at an angle of 173°. Each sample was analyzed in duplicate. Z average measurements were taken to determine the relative molecular “size” of the formulation in terms of the hydrodynamic diameter (DH) radius in solution. DH is inversely related the z-average translational diffusion coefficient (D) in the solution.
# nerves = test: In vivo fluorescence imaging of nerves; parameters: species or system mice; details: for nerve-to-adipose tissue ratio: fluorescence emission of 600 nm, compared to agents (4) and (5), FIG. 2
# Experimental: To assess the efficacy of the sulfonamide agents in-vivo the agents were formulated using the following excipients: 5-20% propylene glycol (v/v; JT Baker 9402-01), 5-30% 2-Hydroxylpropyl-β-Cyclodextrin (w/v; Sigma H5784) and 70-90% distilled/deionized water (v/v).
# To prepare the pharmaceutical carrier, each excipient is added individually beginning with propylene glycol. Propylene glycol is added directly to the agent and vortexed for approximately 1 minute to guarantee maximal dispersal of the agent in the excipient. The next excipient to be added to the solution is 2-Hydroxylpropyl-β-Cyclodextrin. Cyclodextrin's are cyclic (R-1,4) linked oligosaccharides containing a relatively hydrophobic central cavity and hydrophilic outer surface. The application of cyclodextrin in formulation is to enhance the solubility of a compound in aqueous solutions. In formulation of the sulfonamide analogs a final concentration of 5-15%; 2-Hydroxypropyl β-cyclodextrin (w/v) is added to the solution. The formulation is again vortexed for 1-5 minutes and the pH adjusted to a final range between 4-5. The final step in the formulation is to bring the solution to the volume with distilled/deionized water.
# Male CD-1 mice between 25-35 grams were purchased from Charles River Laboratories (Wilmington, Mass.). Prior to administration of the agent, animals were briefly anesthetized using 2% isofluorane. Each agent was then administered in a 15.2 mg/kg dose via tail vein catheterization. Each rodent was allowed to recover from anesthesia prior to returning to the home cage.
# Structure (2) and (3) were administered at an average of 15 mg/kg formulated in the pharmaceutical carrier. Formulated agents were administered in mice 4 hours prior to imaging using a Zeiss Lumara microscope (Carl Zeiss Meditec, Inc., Oberkochen, Germany) with an attached CRI Nuance™ camera for multispectral fluorescence imaging (Cambridge Research & Instrumentation, Inc., Woburn, Mass.). The excitation wavelengths used were 406/15 nm or 460/60 nm.
# The adjacent muscle tissues had very low background binding. […]
# nerve tissue sections = test: Ex vivo staining of nerve tissue sections by the agents (histochemical assay); assay type: binding, rat; parameters: key to Nerve binding, ex vivo: A+ indicates binding to nerves using the ex vivo histochemical assay; details: for Nerve binding, ex vivo: 10 uM agent, 20 minutes, nerve tissue sections; for staining of the trigeminal nerves: rat trigeminal nerve sections, FIG. 1
# Description: Various nerves including sciatic, femoral, brachial plexus, trigeminal, optic, and penile were harvested from male Sprague Dawley rats or male CD-1 mice. Tissue was fixed by perfusion and/or post-fixation with formalin. Following post-fixation, tissue was cryoprotected in a 20% sucrose solution made in phosphate buffered saline (PBS). Nerves were then flash-frozen using methanol and dry ice in OCT media. In some cases, PVDF membranes were used to help keep the nerves vertical in the OCT media. Thin sections (5-10 microns) were sliced on a Leica microtome (Leica Microsystems GmbH, Wetzlar Germany) and stored in a −80° C. freezer prior to staining with agents (1)-(5).
# The agents were dissolved in DMSO to make a 10 mM stock solution. Slides containing nerve tissue sections were rinsed three times with PBS. The tissue sections were incubated with a solution of 10 uM of each fluorophore diluted in either PBS or a mixture of 99 uL DMSO, 100 uL cremaphor, 600 uL rat serum, and 200 uL PBS for 20 minutes. The slides were then washed with PBS for 5 min three times, cover-slipped with Vectashield and imaged on a Zeiss Axioimager microscope (Carl Zeiss Meditec, Inc., Oberkochen, Germany) at 200× magnification. A custom filter cube (excitation filter: 387 nm with 11 nm bandpass, 409 nm dichroic mirror; emission filter 409 nm long pass) was used to collect images for examination of morphology and for image analysis.
# The control slides, containing the nerves with no agent (not shown), was negative under the same imaging conditions.
# [2] = Absorbance and fluorescence spectra of the agents; assay type: physicochemical; details: for Excitation (DMSO): excitation maximum in 100% DMSO; for Excitation(MeOH): excitation maximum in absolute methanol; for ExcitationddH2O: excitation maximum in distilled/deionized water; for Emission(DMSO): fluorescence emission maximum in DMSO; for Emission(MeOH): fluorescence emission maximum in MeOH; for EmissionddH2O: fluorescence emission maximum in ddH2O
# Experimental: Absorbance spectra of the agents were measured using a UV-Vis spectrometer (PerkinElmer Lambda™ 20, PerkinElmer, Inc., Waltham Mass.) in wavelengths ranging from 200-to-800 nm in 100% dimethylsulfoxide (DMSO), absolute methanol (MeOH), and distilled/deionized water (ddH2O). The wavelength corresponding to the maximum absorbance is recorded and used as the excitation wavelength for future fluorescence measurements.
# The fluorescence spectra of the agents were collected in DMSO, MeOH, and ddH2O under continuous excitation using a xenon short arc light source (Ushio UXL 75W, Ushio America, Inc., Cyress Calif.) equipped fluorimeter (350-900 nm; PTI Fluorimeter, Photon Technology International Birmingham, N.J.). A+ indicates binding to nerves using the ex vivo histochemical assay.
SMILES,Z-average [1],"time at which nerve-to-muscle ratio is best (nerves; mice, FIG. 4)","Nerve binding, ex vivo (nerve tissue sections)",Excitation (DMSO) [2] [nm],Excitation(MeOH) [2] [nm],ExcitationddH2O [2] [nm],Emission(DMSO) [2] [nm],Emission(MeOH) [2] [nm],EmissionddH2O [2] [nm],nerve-to-adipose tissue ratio (nerves),staining of the trigeminal nerves (nerve tissue sections)
COc1cc(/C=C/c2ccc(S(=O)(=O)N3CCN(CCO)CC3)cc2)ccc1/C=C/c1ccc(N)cc1.Cl [Structure 3],,,,,,,,,,higher,
COc1cc(/C=C/c2ccc(S(=O)(=O)N3CCOCC3)cc2)ccc1/C=C/c1ccc(N)cc1 [(1)],,,+,422,392,380,621,604,581,,myelinated donut-shaped structures are visible
COc1cc(/C=C/c2ccc(S(=O)(=O)N(CCO)CCO)cc2)ccc1/C=C/c1ccc(N)cc1 [Structure 2],,,,,,,,,,higher,

# Further lines, with some results ahead:
Z-average [1],"time at which nerve-to-muscle ratio is best (nerves; mice, FIG. 4)","Nerve binding, ex vivo (nerve tissue sections)",Excitation (DMSO) [2] [nm],Excitation(MeOH) [2] [nm],ExcitationddH2O [2] [nm],Emission(DMSO) [2] [nm],Emission(MeOH) [2] [nm],EmissionddH2O [2] [nm],SMILES,nerve-to-adipose tissue ratio (nerves),staining of the trigeminal nerves (nerve tissue sections)
2210.00,,,,,,,,,COc1cc(/C=C/c2ccc(S(C)(=O)=O)cc2)ccc1/C=C/c1ccc(N)cc1 [(4)],,
7365.00,four,,,,,,,,COc1cc(/C=C/c2ccc(C#N)cc2)ccc1/C=C/c1ccc(N)cc1 [(5)],,
,,+,392,391,409,600,680,620,COc1cc(/C=C/c2ccc(S(=O)(=O)N(CCO)CCO)cc2)ccc1/C=C/c1ccc(N)cc1 [(2)],,myelinated donut-shaped structures are visible
29.70,,+,388,380,412,615,488,626,COc1cc(/C=C/c2ccc(S(=O)(=O)N3CCN(CCO)CC3)cc2)ccc1/C=C/c1ccc(N)cc1.Cl [(3)],,myelinated donut-shaped structures are visible
